According to the NIST ThermoML archive (doi:10.1016/j.jct.2008.01.003):

Experiment: mn = molality of the nth substance listed, in mol/kg
Conditions: 101 kPa, Liquid

CCCCCCn1cc[n+](C)c1.[Br-] [3-hexyl-1-methyl-1H-imidazolium bromide] + O
Conditions | mass density, 283.15 K [kg/m3] | mass density, 288.15 K [kg/m3] | mass density, 293.15 K [kg/m3] | mass density, 298.15 K [kg/m3] | mass density, 303.15 K [kg/m3] | speed of sound, 283.15 K [m/s] | speed of sound, 288.15 K [m/s] | speed of sound, 293.15 K [m/s] | speed of sound, 298.15 K [m/s] | speed of sound, 303.15 K [m/s]
m1 = 0.0042 | 999.919 | 999.312 | 998.411 | 997.246 | 995.843 | 1448.7 | 1467 | 1483.2 | 1497.5 | 1509.8
m1 = 0.0048 | 999.941 | 999.334 | 998.432 | 997.266 | 995.864 | 1448.8 | 1467.1 | 1483.2 | 1497.5 | 1509.8
m1 = 0.0067 | 1000.03 | 999.423 | 998.518 | 997.351 | 995.948 | 1449.2 | 1467.4 | 1483.5 | 1497.7 | 1510.1
m1 = 0.0081 | 1000.1 | 999.485 | 998.579 | 997.413 | 996.006 | 1449.3 | 1467.4 | 1483.6 | 1497.7 | 1510.1
m1 = 0.0139 | 1000.38 | 999.762 | 998.85 | 997.679 | 996.267 | 1450.3 | 1468.4 | 1484.5 | 1498.6 | 1510.8
m1 = 0.0295 | 1001.15 | 1000.52 | 999.592 | 998.405 | 996.983 | 1452.9 | 1470.8 | 1486.7 | 1500.5 | 1512.6
m1 = 0.0369 | 1001.52 | 1000.88 | 999.946 | 998.754 | 997.324 | 1453.3 | 1471.1 | 1486.8 | 1500.6 | 1512.5
m1 = 0.0487 | 1002.1 | 1001.45 | 1000.5 | 999.3 | 997.863 | 1455.3 | 1473 | 1488.5 | 1502.2 | 1514
m1 = 0.064 | 1002.84 | 1002.17 | 1001.21 | 999.994 | 998.545 | 1457.9 | 1475.3 | 1490.7 | 1504.1 | 1515.7
m1 = 0.073 | 1003.27 | 1002.59 | 1001.62 | 1000.4 | 998.942 | 1459.4 | 1476.6 | 1491.9 | 1505.2 | 1516.7
m1 = 0.094 | 1004.29 | 1003.59 | 1002.6 | 1001.35 | 999.878 | 1462.8 | 1479.8 | 1494.8 | 1507.8 | 1519.2
m1 = 0.1183 | 1005.45 | 1004.72 | 1003.71 | 1002.44 | 1000.95 | 1466.9 | 1483.5 | 1498.2 | 1510.9 | 1522
m1 = 0.1423 | 1006.6 | 1005.85 | 1004.81 | 1003.53 | 1002.01 | 1470.9 | 1487.1 | 1501.4 | 1513.9 | 1524.7
m1 = 0.1639 | 1007.6 | 1006.82 | 1005.77 | 1004.47 | 1002.94 | 1474 | 1490 | 1504.1 | 1516.3 | 1526.9
m1 = 0.2206 | 1010.25 | 1009.42 | 1008.31 | 1006.95 | 1005.38 | 1482.7 | 1497.9 | 1511.2 | 1522.8 | 1532.7
m1 = 0.2581 | 1011.96 | 1011.09 | 1009.94 | 1008.55 | 1006.95 | 1488.1 | 1502.7 | 1515.6 | 1526.7 | 1536.2
m1 = 0.3034 | 1014.04 | 1013.11 | 1011.93 | 1010.5 | 1008.86 | 1494.6 | 1508.7 | 1521 | 1531.6 | 1540.7
m1 = 0.3543 | 1016.3 | 1015.32 | 1014.08 | 1012.61 | 1010.93 | 1501.6 | 1515 | 1526.7 | 1536.8 | 1545.3
m1 = 0.3874 | 1017.82 | 1016.8 | 1015.53 | 1014.03 | 1012.32 | 1506.1 | 1519.1 | 1530.4 | 1540.1 | 1548.2
m1 = 0.4492 | 1020.54 | 1019.46 | 1018.13 | 1016.57 | 1014.81 | 1513.7 | 1525.9 | 1536.4 | 1545.4 | 1552.9
m1 = 0.6269 | 1028.05 | 1026.78 | 1025.28 | 1023.56 | 1021.66 | 1535.2 | 1545.3 | 1553.8 | 1561 | 1566.8
m1 = 0.8614 | 1037.26 | 1035.74 | 1034.03 | 1032.12 | 1030.03 | 1557.7 | 1565.1 | 1571.3 | 1576.3 | 1580.2
m1 = 1.001 | 1042.28 | 1040.64 | 1038.8 | 1036.78 | 1034.6 | 1568.5 | 1574.6 | 1579.6 | 1583.5 | 1586.5
m1 = 1.321 | 1053.01 | 1051.1 | 1049.03 | 1046.8 | 1044.42 | 1586.3 | 1590.3 | 1593.4 | 1595.6 | 1596.9
m1 = 1.739 | 1065.23 | 1063.06 | 1060.74 | 1058.31 | 1055.74 | 1600 | 1602.5 | 1604.1 | 1604.8 | 1604.7
m1 = 2.087 | 1074.16 | 1071.82 | 1069.36 | 1066.78 | 1064.09 | 1607.4 | 1608.9 | 1609.6 | 1609.4 | 1608.4
